Test [1] deals with T1, Endoribonuclease toxin MazF (Escherichia coli K-12, UniProt P0AE70).
T1 sequence (P0AE70 whole entry): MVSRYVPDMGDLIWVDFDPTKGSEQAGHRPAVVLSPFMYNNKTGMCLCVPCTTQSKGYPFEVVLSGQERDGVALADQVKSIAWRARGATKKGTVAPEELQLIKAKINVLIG
The test is described as follows: activation of MazEF endoribonuclease cleavage – biochemical, fluorescence, single-stranded RNA substrate, uHTS hits, dose response (AID 588481). In kind it is functional.

Test [2] addresses T1, Endoribonuclease toxin MazF. The test is described as follows: substrate-only fluorescence increase artefacts – biochemical, single-stranded RNase substrate, counter-screen for MazEF activator project, dose response (AID 588502). The class given is functional.
The test system of test [3] is BJ. The test is described as follows: BJ-TERT fibroblast viability loss – cell-based, RAS-independent, luminescence, dose response (AID 1933). In kind it is functional. The settings on record: Homo sapiens.
The target of test [4] is T2, Microphthalmia-associated transcription factor (Homo sapiens, UniProt O75030).
T2 sequence (O75030 whole entry): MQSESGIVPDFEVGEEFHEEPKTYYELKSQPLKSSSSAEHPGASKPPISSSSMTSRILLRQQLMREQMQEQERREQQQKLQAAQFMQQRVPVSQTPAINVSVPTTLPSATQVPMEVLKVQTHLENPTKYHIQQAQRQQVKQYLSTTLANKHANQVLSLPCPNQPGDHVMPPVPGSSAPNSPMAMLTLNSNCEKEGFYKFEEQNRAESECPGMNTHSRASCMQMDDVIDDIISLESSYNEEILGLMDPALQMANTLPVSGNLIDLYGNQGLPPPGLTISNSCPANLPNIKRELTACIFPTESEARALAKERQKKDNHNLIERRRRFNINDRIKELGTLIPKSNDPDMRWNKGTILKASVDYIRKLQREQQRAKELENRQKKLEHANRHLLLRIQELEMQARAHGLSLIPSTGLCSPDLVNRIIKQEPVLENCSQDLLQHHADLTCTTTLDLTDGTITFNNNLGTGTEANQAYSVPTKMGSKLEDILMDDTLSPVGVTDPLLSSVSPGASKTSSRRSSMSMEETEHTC
Description: reducers of TRPM1 reporter luminescence, concentration series – cell-based, SK-MEL-5, cherry-picked, set 3, MITF inhibitor project, dose response (AID 493073).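 Further: SK-MEL-5 melanoma cells with luciferase driven by the MITF target TRPM1 promoter.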 In kind it is functional.

Test [5] concerns BJ. Description: BJ-TERT-LT-ST fibroblast viability loss – cell-based, RAS-independent, luminescence, dose response (AID 1935).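 Further: BJ fibroblasts immortalized with TERT plus LT and ST oncogenes.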 The class given is functional. To be noted: Homo sapiens.
Test [6] deals with BJ. The test is described as follows: cells. The class given is functional, cell-based. The settings on record: Homo sapiens.
Test [7] can be described thus: DRD fibroblast viability loss – cell-based, non-viral oncogenic, luminescence, dose response (AID 1934). The class given is functional. The settings on record: Homo sapiens.
For test [8], the system named is BJ. The test is described as follows: growth inhibition of engineered Ras-driven BJ cells – cell-based, alamar blue fluorescence, cherrypicked samples, dose response (AID 2631).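 Further: confirmatory dose-response assay in RAS-dependent BJ fibroblasts engineered with TERT, LT and ST, with cytotoxicity read by fluorescence.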 In kind it is functional. To be noted: Homo sapiens. On the technique in general: Resazurin is reduced to fluorescent resorufin, in cell work by metabolically active cells.
Test [9] addresses FAD-linked sulfhydryl oxidase ALR (Homo sapiens, UniProt P55789). The test is described as follows: ALR-catalysed DTT oxidation blockers – biochemical, H2O2 detection, luminescence, cherry-pick, dose response (AID 493248).
For the next test, the target named is T3, Caspase-6 (Homo sapiens, UniProt P55212).
T3 sequence (P55212 whole entry): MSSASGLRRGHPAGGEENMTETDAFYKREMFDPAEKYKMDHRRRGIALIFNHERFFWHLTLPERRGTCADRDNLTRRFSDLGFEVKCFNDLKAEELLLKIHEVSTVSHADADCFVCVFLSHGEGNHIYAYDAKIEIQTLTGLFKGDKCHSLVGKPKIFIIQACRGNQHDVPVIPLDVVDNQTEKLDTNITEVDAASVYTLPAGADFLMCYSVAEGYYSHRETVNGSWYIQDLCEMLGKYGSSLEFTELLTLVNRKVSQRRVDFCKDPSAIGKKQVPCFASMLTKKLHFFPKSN
Description: inhibition of CASP6 peptide cleavage – biochemical, VEID-R110 fluorescence, cherry-pick, dose response (AID 720632).

The target of test [10] is T4, Apoptotic protease-activating factor 1 (Homo sapiens, UniProt O14727).
T4 sequence (O14727 whole entry): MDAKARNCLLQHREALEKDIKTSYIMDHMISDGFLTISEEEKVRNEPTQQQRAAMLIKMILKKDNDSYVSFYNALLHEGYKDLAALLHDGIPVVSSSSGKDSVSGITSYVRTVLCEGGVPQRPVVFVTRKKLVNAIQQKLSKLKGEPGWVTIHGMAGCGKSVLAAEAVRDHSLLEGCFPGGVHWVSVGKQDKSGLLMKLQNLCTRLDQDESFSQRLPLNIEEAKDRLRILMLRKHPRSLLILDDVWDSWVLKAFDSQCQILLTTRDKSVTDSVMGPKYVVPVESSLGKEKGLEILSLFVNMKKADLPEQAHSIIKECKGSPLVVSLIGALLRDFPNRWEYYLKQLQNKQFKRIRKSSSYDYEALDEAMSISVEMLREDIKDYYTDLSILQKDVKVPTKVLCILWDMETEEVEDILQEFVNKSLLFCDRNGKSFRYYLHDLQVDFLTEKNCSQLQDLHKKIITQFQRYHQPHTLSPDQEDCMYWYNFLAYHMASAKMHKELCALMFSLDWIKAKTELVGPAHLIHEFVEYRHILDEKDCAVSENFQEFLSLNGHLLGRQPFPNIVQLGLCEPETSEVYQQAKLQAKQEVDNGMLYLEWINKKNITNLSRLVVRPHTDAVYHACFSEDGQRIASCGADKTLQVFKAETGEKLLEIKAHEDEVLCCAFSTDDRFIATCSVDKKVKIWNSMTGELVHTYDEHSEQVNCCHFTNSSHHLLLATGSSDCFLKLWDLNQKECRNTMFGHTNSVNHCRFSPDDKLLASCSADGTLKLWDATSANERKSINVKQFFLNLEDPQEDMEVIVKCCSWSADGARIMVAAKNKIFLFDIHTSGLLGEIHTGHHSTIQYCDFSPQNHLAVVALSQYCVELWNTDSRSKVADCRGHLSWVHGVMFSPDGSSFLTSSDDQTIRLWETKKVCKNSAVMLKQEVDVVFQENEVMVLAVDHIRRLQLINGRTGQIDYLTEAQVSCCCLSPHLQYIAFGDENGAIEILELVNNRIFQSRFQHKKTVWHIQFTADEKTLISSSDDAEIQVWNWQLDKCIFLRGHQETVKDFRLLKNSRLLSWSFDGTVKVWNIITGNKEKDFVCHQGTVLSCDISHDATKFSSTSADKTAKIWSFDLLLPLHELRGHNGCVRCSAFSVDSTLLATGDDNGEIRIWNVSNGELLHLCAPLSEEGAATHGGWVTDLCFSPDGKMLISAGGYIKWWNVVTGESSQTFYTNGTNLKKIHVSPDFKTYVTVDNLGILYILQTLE
The class given is functional.

The test system of the next test is INS1. Description: INS-1E survival protection against cytokine death – cell-based, luminescence, retest, dose response (AID 449756).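 Further: cell death triggered by IL-1 beta plus TNF-alpha plus IFN-gamma mixture; protective hits raise ATP signal compared with cytokine alone wells.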 To be noted: Rattus norvegicus. In kind it is functional.
A short description of test [11]: luciferase reporter signal suppression in cells – H4 neuroglioma cells, luminescence, dose response (AID 1990). In kind it is functional, cell-based. (In general: In a reporter assay the amount or activity of a reporter protein is the signal.)
Test [12] can be described thus: loss of viability in HepG2 cells – cell-based, CellTiter-Glo, cherry-picked, cytotoxicity control for Shn3 inhibitor project, dose response (AID 624134). The class given is functional. (In general: In ATP-based viability assays light output follows the ATP content of the culture.)
Test [13] in a line: non-specific 3'UTR reporter inhibition in Clone20-Shn3RL – cell-based, Renilla luciferase, cherry-picked, counter-screen for Shn3 inhibitor project, dose response (AID 624133). The class given is functional.
In the next test the test system is Streptococcus. Description: GAS UMAA2166 growth inhibition – luminescence, BacTiterGlo, counter-screen for streptokinase expression inhibitor project, dose response (AID 1915).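 Further: potency for reduction of bacterial viability or growth.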 The class given is functional, organism-based.
A short description of test [14]: alpha-synuclein stem-loop luciferase translation blockers – H4 neuroglioma cells, luminescence, confirmation (AID 1988). The class given is functional, cell-based.
Test [15] can be described thus: reduction of Shn3 3'UTR-driven luciferase in osteoblasts – cell-based, Clone20 osteoblasts, firefly luciferase, cherry-picked, dose response (AID 624132).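 Further: firefly luciferase luminescence from reporter carrying the Shn3 3'UTR in osteoblasts.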 The class given is functional.
The nature of test [16]: microbe, parasite or virus in culture. In kind it is functional. To be noted: Mycobacterium tuberculosis.
Test [17] concerns Streptococcus sp. 'group A'. The test is described as follows: Streptococcus pyogenes SK(-)GAS viability under kanamycin – luminescence, BacTiterGlo, confirmation, counter-screen for streptokinase expression inhibitor project, dose response (AID 1900). The class given is functional, organism-based.
The next test has as its target Paired box protein Pax-8 (Homo sapiens, UniProt Q06710). Description: PAX8 transcriptional activity inhibition in RMG-I – RMG-I cells, luciferase, cherry-pick, dose response (AID 687027).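 Further: luciferase reporter driven by Pax8 target thyroperoxidase promoter measured by SteadyGlo luminescence.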 In kind it is functional, cell-based.
Test [18] is described as follows: Luminescence Cell-Based Dose Response HTS to Identify Inhibitors of 5'UTR Stem-Loop Driven Prion Protein mRNA Translation in H4 Neuroglioblastoma Cells. [Related pubchem assays: 1827 (Project Summary), 1813 (Primary HTS)]. The class given is functional.

Activity calls are given as the source filed them.

FAD-linked sulfhydryl oxidase ALR, sequence (P55789 whole entry): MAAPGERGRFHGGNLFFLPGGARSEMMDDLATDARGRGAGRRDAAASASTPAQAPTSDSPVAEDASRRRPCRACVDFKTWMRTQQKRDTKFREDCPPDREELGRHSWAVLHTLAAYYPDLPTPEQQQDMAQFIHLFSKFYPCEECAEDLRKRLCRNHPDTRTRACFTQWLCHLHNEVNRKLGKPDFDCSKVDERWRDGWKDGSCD
Paired box protein Pax-8, sequence (Q06710 whole entry): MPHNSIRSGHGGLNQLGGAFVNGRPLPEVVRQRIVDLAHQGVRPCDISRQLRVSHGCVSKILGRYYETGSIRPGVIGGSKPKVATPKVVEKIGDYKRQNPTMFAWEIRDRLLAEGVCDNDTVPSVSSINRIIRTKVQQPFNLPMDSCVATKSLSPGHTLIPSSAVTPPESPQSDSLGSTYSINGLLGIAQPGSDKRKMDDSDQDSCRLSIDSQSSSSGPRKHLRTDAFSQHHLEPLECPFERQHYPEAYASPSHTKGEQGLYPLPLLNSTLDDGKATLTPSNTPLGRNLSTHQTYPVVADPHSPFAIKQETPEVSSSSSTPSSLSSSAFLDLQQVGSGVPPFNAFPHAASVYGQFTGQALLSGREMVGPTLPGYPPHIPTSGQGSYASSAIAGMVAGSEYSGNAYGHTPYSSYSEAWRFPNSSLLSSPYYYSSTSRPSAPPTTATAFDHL

Turning to `Cc1ccc(-c2ccccc2NC(=O)C[S+]([O-])CC(=O)Nc2ccc(C)c(Cl)c2)o1` (configuration not stated), the EC50 – broadly, the concentration giving half of the maximal effect – is 34.1 µM (inactive) in [1] and 41.5 µM (inactive) in test [2].
Consider `CC(=O)c1cccc(NC(=O)/C=C/c2ccc([N+](=O)[O-])s2)c1`, for which the half-maximal effective concentration (EC50) in the test with BJ [3] was 4.44 µM (active); with BJ [5], 4.95 µM (inconclusive); in the test with BJ [6], > 150 µM (inconclusive); in test [7], 5.53 µM (active); in the test with BJ [8], 0.545 µM (inconclusive). For the same molecule, the AC50 (in general, the concentration at which the activity in the assay is half-maximal) in test [4] is 7.16 µM (active).
Turning to `COC(=O)c1nn2c(C(F)(F)F)cc(-c3ccc(Br)o3)nc2c1Br`, the EC50 in [1] was > 99 µM (inactive); in [2] it was 30.5 µM (inactive).
For the molecule `CC(=O)CSc1nc2cc3c(cc2cc1C#N)OCCO3`, the EC50 was > 99 µM (inactive) in test [1] and 29.5 µM (inactive) in test [2].
Turning to `NNS(=O)(=O)c1ccc2c(c1)Cc1cc(S(=O)(=O)NN)ccc1-2`, the AC50 in test [9] was 0.079 µM (active); on Caspase-6 it was 15.8 µM (active). The EC50 in [1] was 89.5 µM (inactive); in test [2] it was 4.48 µM (active).
Take `COCCN1C=C2C(=O)C(C)(OC(=O)CCC(=O)OC)C(=O)C(Br)=C2C=C1c1ccc(OC)cc1` (configuration not stated): the IC50 (as a rule, the point on the concentration scale where inhibition reaches its midpoint) in test [10] was 11 µM (active).
Take `CSc1ccc(S(=O)(=O)NCC(=O)OCCOc2ccccc2)cc1[N+](=O)[O-]`: the EC50 in test [1] was 25.8 µM (inactive); in test [2] it was > 99 µM (inactive).
Regarding `CCCCn1cc[n+](C2=C([N-]S(=O)(=O)c3ccc(Br)cc3)C(=O)c3ccccc3C2=O)c1`, in test [10], the IC50 was 8.28 µM (active). For the same molecule, the AC50 in the test on INS1 was 2.86 µM (active).
As to `COc1ccccc1N1C(=O)S/C(=C\c2cc(C)n(C)c2C)C1=O`, the EC50 was > 99 µM (inactive) in [1] and 30.6 µM (inactive) in test [2].
`CCOc1ccc(NC(=O)CN(C)C(=O)c2ccc(COc3ccccc3)cc2)cc1OCC`: the IC50 in [10] was > 100 µM (inactive).
Turning to `C=CCn1c(=O)/c(=C\c2ccccn2)s/c1=C(/C#N)C(=O)NCC1CCCO1` (configuration not stated), the EC50 in test [1] and in test [2] was > 99 µM (inactive) throughout.
For the molecule `O=[N+]([O-])c1ccc(O)c(-c2cc(C(F)(F)F)nc(-c3ccccc3)n2)c1`, the EC50 in test [11] is 9.18 µM (active); in the test on BJ [3], 2.44 µM (active); with BJ [5] it was 2.14 µM (inconclusive); in the test on Streptococcus it was 0.254 µM (active); in the test with BJ [6] it was 2.95 µM (active); in test [7], 2.96 µM (active). Moreover, the EC50 in test [14] was 8.04 µM (inconclusive); in the test with BJ [8], 0.571 µM (inconclusive); in test [17], 0.104 µM (active); in test [18], 9.13 µM (active). The AC50 was 1.61 µM (active) in test [12]; 0.906 µM (active) in [13]; 2.73 µM (active) in test [15]; 1.05 µM (active) in the test with INS1; 0.811 µM (active) on Paired box protein Pax-8. Besides, the CC50 in [16] is 0.546 µM (active).
